Data as given in ChEMBL document CHEMBL1201862, “PubChem BioAssay data set” (2004).
Calls of active or inactive are those of the source.

Columns and labels:
[1] = molecular target: T1, Mitochondrial peptide methionine sulfoxide reductase (Bos taurus, UniProt P54149); assay: Absorbance-based biochemical high throughput dose response assay for activators of Methionine sulfoxide reductase A (MsrA).; assay type: functional
T1 sequence (P54149 whole entry): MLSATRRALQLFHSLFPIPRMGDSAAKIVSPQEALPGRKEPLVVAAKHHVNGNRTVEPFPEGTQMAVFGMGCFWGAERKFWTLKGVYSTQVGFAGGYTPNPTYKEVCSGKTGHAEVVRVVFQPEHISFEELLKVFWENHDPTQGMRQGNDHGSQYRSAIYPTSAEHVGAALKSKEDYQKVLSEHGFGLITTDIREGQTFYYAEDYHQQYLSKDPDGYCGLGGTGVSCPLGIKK

Paired box protein Pax-8 = Paired box protein Pax-8 (Homo sapiens, UniProt Q06710); assay: inhibitors of PAX8-driven TPO luciferase reporter, dose response, RMG-I cells, cherry-pick (AID 687027); assay type: functional, cell-based;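 also: luciferase reporter driven by Pax8 target thyroperoxidase promoter measured by SteadyGlo luminescence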
Paired box protein Pax-8, sequence (Q06710 whole entry): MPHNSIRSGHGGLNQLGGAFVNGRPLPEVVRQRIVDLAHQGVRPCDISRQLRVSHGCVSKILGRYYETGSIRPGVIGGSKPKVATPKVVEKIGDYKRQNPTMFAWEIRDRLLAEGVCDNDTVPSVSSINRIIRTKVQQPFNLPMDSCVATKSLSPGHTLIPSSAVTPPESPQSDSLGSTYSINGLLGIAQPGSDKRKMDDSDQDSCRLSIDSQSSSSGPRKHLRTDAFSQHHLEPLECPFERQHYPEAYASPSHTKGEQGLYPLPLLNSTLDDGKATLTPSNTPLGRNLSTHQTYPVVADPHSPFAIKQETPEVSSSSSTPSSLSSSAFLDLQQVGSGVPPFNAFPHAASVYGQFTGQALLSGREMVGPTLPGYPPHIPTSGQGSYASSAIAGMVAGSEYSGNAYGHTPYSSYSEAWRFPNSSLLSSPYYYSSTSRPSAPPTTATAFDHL

[2] = A2780 ovarian cancer cell cytotoxicity, dose response, cytotoxicity control, plate reader, dry powder samples (AID 743046); assay type: functional, cell-based
[3] = cytotoxicity in OVCAR8 ovarian cancer cells, dose response, PAX8 project, cell-based, plate reader, dry powder samples (AID 743197); assay type: functional; settings: OVCAR-8
[4] = inhibitors of HIV Env-driven cell fusion, dose response, cherry-pick (AID 652057); assay type: functional, cell-based
[5] = CEM21 lymphoblast cell cytotoxicity, dose response, cytotoxicity control for viral fusion inhibitor project, CellTiter-Glo luminescence, cherry-picked (AID 652042); assay type: functional, cell-based;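 also: potency for signal decrease meaning cytotoxicity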
[6] = ZM109 Env clade C HIV-1 fusion inhibitors, dose response, HeLa effector, CEM target cells, luciferase, cherry-pick (AID 652058); assay type: functional, cell-based
[7] = inhibitors of clade B AD8 Env fusion, dose response, cell-based, cherry-pick (AID 652062); assay type: functional;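 also: luciferase signal from cell-cell fusion driven by HIV-1 clade B AD8 Env; potency is for inhibitors of fusion seen as a drop in luminescence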
[8] = molecular target: Disintegrin and metalloproteinase domain-containing protein 17 (Homo sapiens, UniProt P78536); assay: exosite inhibitors of ADAM17, dose response, biochemical (AID 743260)
Disintegrin and metalloproteinase domain-containing protein 17, sequence (P78536 whole entry, the tested form may be a part): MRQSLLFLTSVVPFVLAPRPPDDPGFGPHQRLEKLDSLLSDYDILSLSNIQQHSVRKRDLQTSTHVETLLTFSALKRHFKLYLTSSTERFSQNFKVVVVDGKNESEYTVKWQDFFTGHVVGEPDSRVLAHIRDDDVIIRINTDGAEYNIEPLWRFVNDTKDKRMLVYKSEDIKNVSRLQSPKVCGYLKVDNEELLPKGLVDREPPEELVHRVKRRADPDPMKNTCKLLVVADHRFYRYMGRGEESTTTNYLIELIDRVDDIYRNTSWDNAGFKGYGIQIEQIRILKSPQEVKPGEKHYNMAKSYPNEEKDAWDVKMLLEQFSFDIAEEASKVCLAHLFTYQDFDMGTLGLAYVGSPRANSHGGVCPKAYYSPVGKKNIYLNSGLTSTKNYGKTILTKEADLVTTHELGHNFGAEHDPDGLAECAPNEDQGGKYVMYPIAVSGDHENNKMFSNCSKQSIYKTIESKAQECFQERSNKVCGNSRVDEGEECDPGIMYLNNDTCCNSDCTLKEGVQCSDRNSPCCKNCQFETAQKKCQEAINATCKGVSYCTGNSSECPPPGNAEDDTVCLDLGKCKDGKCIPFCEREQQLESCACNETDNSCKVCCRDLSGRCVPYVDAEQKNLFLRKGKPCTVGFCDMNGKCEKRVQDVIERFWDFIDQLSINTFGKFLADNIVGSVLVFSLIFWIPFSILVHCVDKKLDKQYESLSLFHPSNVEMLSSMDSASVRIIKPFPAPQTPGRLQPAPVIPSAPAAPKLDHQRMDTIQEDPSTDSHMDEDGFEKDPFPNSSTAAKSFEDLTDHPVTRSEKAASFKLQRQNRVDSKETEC

[9] = ADAM10 protease inhibitors, dose response, selectivity assay for ADAM17 exosite inhibitor project, biochemical, FRET peptide substrate, recombinant human ADAM10 (AID 743259);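 also: ADAM10 enzyme cleaving a FRET peptide substrate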
Beta-galactosidase = Beta-galactosidase (Escherichia coli, UniProt Q8VNN2); assay: PubChem AID 485352; assay type: functional
Beta-galactosidase, sequence (Q8VNN2 whole entry): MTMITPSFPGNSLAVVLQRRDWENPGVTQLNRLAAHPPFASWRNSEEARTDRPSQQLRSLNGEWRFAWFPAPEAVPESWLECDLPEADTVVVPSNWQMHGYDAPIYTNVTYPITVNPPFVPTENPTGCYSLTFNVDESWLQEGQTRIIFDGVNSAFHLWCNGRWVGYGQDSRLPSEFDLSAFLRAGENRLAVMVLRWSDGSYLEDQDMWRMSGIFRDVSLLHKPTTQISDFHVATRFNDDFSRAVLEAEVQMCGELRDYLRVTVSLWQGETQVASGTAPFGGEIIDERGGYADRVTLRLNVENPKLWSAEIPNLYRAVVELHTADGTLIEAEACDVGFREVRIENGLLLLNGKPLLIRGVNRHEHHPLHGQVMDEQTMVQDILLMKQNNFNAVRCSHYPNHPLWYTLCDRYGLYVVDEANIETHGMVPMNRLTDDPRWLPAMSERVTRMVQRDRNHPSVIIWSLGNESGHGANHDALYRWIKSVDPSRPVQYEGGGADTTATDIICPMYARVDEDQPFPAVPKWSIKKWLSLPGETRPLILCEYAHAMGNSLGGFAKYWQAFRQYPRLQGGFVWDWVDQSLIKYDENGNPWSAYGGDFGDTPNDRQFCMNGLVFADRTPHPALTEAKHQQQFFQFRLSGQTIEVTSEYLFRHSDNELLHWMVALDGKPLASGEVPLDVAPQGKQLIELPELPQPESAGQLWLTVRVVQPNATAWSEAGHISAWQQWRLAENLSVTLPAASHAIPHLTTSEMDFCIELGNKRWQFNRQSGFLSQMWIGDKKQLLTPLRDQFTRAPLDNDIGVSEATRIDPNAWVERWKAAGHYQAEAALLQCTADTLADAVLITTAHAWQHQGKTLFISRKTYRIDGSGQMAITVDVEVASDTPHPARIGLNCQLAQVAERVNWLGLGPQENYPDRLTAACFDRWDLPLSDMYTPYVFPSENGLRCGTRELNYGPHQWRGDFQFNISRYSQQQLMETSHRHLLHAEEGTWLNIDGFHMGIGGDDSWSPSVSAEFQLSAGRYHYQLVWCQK

[10] = molecular target: T2, Type-1 angiotensin II receptor (Homo sapiens, UniProt P30556); assay: AT1 receptor antagonists, dose response, selectivity assay for APJ receptor antagonist project, cell-based, uHTS hits (AID 463214); assay type: functional;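 also: antagonist potency against angiotensin II stimulated AT1 response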
T2 sequence (P30556 whole entry): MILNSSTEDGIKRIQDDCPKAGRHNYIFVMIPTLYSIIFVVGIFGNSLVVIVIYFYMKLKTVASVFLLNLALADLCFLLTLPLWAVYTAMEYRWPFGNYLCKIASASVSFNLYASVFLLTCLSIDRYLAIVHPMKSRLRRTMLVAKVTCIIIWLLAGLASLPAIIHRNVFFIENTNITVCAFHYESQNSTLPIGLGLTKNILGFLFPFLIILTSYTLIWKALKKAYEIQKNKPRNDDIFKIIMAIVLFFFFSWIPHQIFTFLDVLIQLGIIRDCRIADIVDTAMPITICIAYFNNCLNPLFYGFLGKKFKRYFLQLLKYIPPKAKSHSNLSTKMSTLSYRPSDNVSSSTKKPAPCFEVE

[11] = microbe, parasite or virus in culture; assay type: functional; settings: Mycobacterium tuberculosis
[12] = molecular target: FAD-linked sulfhydryl oxidase ALR (Homo sapiens, UniProt P55789); assay: inhibitors of human ALR sulfhydryl oxidase, dose response, biochemical, H2O2 detection, luminescence, cherry-pick (AID 493248)
FAD-linked sulfhydryl oxidase ALR, sequence (P55789 whole entry): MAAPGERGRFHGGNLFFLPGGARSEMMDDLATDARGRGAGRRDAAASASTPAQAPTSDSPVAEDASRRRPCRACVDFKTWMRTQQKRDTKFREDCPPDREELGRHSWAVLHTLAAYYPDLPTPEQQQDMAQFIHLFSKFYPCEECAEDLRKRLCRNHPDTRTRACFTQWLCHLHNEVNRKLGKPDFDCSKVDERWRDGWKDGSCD

INS1 = assay: beta cell apoptosis inhibitors, cytokine rescue, dose response, luminescence, retest (AID 449756); assay type: functional, cell-based; settings: Rattus norvegicus;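 also: cell death triggered by IL-1 beta plus TNF-alpha plus IFN-gamma mixture; protective hits raise ATP signal compared with cytokine alone wells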
[13] = off-target signal loss in HeLa-CEM21 co-culture – HeLa F-luc CTL cells, cherry-picked, counter-screen for HIV-1 Env fusion inhibitor project, dose response (AID 652040); assay type: functional, cell-based;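 also: potency for signal decrease marking cytotoxic or nonspecific inhibition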
[14] = molecular target: T3, Methionyl-tRNA synthetase, putative (Trypanosoma brucei brucei, UniProt Q38C91); assay type: functional, Trypanosoma brucei brucei strain 927/4 GUTat10.1
T3 sequence (Q38C91 whole entry): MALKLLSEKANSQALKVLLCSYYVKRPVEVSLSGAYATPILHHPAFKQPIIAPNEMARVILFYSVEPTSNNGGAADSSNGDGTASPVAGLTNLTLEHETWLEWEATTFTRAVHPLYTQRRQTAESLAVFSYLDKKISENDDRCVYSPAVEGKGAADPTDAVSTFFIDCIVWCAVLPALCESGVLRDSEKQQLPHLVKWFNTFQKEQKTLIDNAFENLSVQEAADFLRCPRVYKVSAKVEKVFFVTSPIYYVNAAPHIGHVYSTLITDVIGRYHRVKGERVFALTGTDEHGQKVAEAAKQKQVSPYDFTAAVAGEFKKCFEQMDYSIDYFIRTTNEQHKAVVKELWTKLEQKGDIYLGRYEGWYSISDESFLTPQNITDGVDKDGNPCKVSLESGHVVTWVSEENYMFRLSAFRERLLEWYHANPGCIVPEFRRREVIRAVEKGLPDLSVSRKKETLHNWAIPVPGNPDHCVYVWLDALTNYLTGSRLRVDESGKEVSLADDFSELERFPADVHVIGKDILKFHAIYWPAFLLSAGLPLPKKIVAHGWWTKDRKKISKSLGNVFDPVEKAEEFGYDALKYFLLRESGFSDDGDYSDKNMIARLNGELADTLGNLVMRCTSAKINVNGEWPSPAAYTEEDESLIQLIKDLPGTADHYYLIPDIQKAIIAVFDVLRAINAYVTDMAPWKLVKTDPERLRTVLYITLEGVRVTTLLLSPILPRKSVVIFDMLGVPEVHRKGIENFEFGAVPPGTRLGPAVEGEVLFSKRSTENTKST

[15] = Counterscreen for inhibitors of Trypanosoma brucei methionyl tRNA synthetase (MetRS): Luminescence-based cell-based high throughput dose response assay to identify compounds that are cytotoxic to Jurkat human T lymphocyte cells.; assay type: functional
[16] = molecular target: T3, Methionyl-tRNA synthetase, putative; assay type: functional, Trypanosoma brucei brucei strain 927/4 GUTat10.1; remark: listed apart in the source
[17] = HEp-2 cell cytotoxicity, dose response, cytotoxicity control for RSV inhibitor project, HTS (AID 2410); assay type: functional; settings: human respiratory syncytial virus
[18] = tested on: Streptococcus sp. 'group A'; assay: growth inhibition of control SK(-) GAS strain, dose response, counter-screen for streptokinase expression inhibitor project, luminescence, kanamycin, BacTiterGlo, confirmation (AID 1900); assay type: functional, organism-based
Streptokinase A = molecular target: T4, Streptokinase A (Streptococcus pyogenes serotype M1, UniProt P10520); assay: S. pyogenes streptokinase expression inhibitors, potency, dose response, plasminogen activation absorbance, OD405 (AID 1914); assay type: functional, Streptococcus pyogenes M1 GAS;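 also: secreted streptokinase activity via plasminogen activation per viability signal from cell pellet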
T4 sequence (P10520 whole entry): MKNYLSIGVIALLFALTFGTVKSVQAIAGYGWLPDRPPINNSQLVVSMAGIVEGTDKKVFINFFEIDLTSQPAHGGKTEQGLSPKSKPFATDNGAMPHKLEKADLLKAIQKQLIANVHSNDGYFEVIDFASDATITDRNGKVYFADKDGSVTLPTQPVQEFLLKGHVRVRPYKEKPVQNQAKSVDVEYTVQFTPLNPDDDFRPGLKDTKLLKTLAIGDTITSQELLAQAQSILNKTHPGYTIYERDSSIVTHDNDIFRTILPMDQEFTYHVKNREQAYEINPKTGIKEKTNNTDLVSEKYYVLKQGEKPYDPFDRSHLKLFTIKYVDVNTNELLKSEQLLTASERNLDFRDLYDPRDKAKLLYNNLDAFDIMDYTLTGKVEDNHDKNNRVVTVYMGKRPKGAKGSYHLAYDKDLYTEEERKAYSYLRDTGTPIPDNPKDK

Streptococcus = assay: Group A Streptococcus viability loss, dose response, counter-screen for streptokinase expression inhibitor project, luminescence, BacTiterGlo (AID 1915); assay type: functional, organism-based;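 also: potency for reduction of bacterial viability or growth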
[19] = inhibitors of intracellular T. cruzi replication, confirmation, NIH3T3 host cells, beta-gal luminescence (AID 2044); assay type: functional, cell-based;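 also: intracellular parasites grown in NIH/3T3 mouse fibroblasts as host cells; luminescent beta-galactosidase reporter signal from transgenic T. cruzi replicating inside host cells; inhibitors lower the luminescence signal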
[20] = cytotoxicity toward NIH3T3 fibroblasts, dose response, counter-screen, cell-based, ATP luminescence, mouse fibroblasts (AID 2010); assay type: functional;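 also: cells exposed to compound for about 90 hours before reading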
[21] = molecular target: Photoreceptor-specific nuclear receptor (Homo sapiens, UniProt Q9Y5X4); assay type: functional, cell-based;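 also: CHO-S cells with Gal4-NCOR and VP16-NR2E3 two-hybrid luciferase reporter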
Photoreceptor-specific nuclear receptor, sequence (Q9Y5X4 whole entry, the tested form may be a part): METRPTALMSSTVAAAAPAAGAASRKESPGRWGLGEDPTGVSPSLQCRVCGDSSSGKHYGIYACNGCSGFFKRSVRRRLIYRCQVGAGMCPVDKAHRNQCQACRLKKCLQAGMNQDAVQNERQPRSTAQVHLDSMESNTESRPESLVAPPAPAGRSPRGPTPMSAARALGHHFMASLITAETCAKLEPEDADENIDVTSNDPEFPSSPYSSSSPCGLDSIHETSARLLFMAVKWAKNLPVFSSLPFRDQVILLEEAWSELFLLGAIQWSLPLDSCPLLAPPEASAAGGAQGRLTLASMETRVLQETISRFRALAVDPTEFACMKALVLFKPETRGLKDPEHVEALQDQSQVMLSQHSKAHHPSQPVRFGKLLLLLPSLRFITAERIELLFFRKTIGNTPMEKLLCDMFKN

[22] = molecular target: T5, Low molecular weight phosphotyrosine protein phosphatase (Homo sapiens, UniProt P24666); assay type: functional; settings: read-out: IC50_Mean;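 also: Dose-response confirmation assay measuring inhibition of LMPTP enzyme activity by fluorescence intensity read-out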
T5 sequence (P24666 whole entry): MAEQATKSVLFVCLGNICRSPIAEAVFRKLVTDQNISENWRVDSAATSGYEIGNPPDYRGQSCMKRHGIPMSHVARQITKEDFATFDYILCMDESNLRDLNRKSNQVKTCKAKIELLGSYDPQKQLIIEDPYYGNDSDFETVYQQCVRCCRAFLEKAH

Structure (SMILES): COc1cc(Nc2ccc(C(=O)O)cc2[N+](=O)[O-])cc(OC)c1
- EC50 [1]: > 104 µM (inactive)

Structure (SMILES): Cc1ccccc1-c1ccc2c(c1)O[C@H](CN(C)C(=O)Nc1ccc(C(F)(F)F)cc1)[C@H](C)CN([C@H](C)CO)S2(=O)=O
- AC50 (Paired box protein Pax-8): 9.06 µM (active)
- AC50 [2]: 14.3 µM (active)
- AC50 [3]: > 70 µM (inactive)

Structure (SMILES): CO[C@H]1CN(C)C(=O)c2ccc(NC(=O)C3CC3)cc2OC[C@H](C)N(Cc2cc(F)ccc2F)C[C@@H]1C
- AC50 [4]: 0.851 µM (active)
- AC50 [5]: 59.9 µM (active)
- AC50 [6]: 0.668 µM (active)
- AC50 [7]: 1.5 µM (active)

Structure (SMILES): CC(=O)Oc1ccc(C(=O)Nc2cccc(C(=O)c3ccc(C)c(C)c3)c2)cc1
- IC50 [8]: > 69.5 µM (inactive)
- IC50 [9]: > 69.5 µM (inactive)

Structure (SMILES): Cc1ccc(/N=C2\C(=O)Nc3ccccc32)cc1
- EC50 (Beta-galactosidase): > 40 µM (inactive)
- IC50 [10]: > 40 µM (not active)

Structure (SMILES): CC(=O)Nc1ccc(S(=O)(=O)Nc2ccc(N3CCCCC3)cc2)cc1
- CC50 [11]: 27.3 µM (active)
- AC50 [12]: 2.07 µM (active)
- AC50 (INS1): 3.64 µM (active)
- AC50 [4]: 10.4 µM (active)
- AC50 [5]: 23.4 µM (active)
- AC50 [6]: 1.18 µM (active)
- AC50 [13]: 22.6 µM (active)
- AC50 [7]: 17.8 µM (active)

Structure (SMILES): O=C(Cc1ccc(S(=O)(=O)N2CCOCC2)s1)Nc1ccc(Br)c(C(F)(F)F)c1
- IC50 [14]: 19.2 µM (inactive)
- IC50 [15]: 46.7 µM (inactive)
- IC50 [16]: 20.9 µM (inactive)

Structure (SMILES): O=C(CNc1cccc(Cl)c1)c1ccc(Cl)cc1
- EC50 (Beta-galactosidase): > 40 µM (inactive)
- IC50 [10]: 5.07 µM (active)

Structure (SMILES): COc1ccc(N=C2C(=O)Nc3ccc(C)c(Br)c32)cc1
- EC50 (Beta-galactosidase): > 40 µM (inactive)
- IC50 [10]: 3.94 µM (active)

Structure (SMILES): Cc1ccc(SCCC(=O)N/N=C/c2cccnc2)cc1
- IC50 [14]: 29.2 µM (inactive)
- IC50 [15]: 83.3 µM (inactive)
- IC50 [16]: 25.9 µM (inactive)

Structure (SMILES): O=C(C[N+]1(CC#Cc2ccccc2)CCOCC1)c1ccc(Cl)cc1
- EC50 (Beta-galactosidase): > 40 µM (inactive)
- IC50 [10]: 39.4 µM (not active)

Structure (SMILES): O=C(NNC(=O)c1cc(-c2ccc(Cl)cc2Cl)nc2ccccc12)Nc1ccccc1
- CC50 [17]: 16.9 µM (active)
- EC50 [18]: 5.3 µM (active)
- EC50 (Streptokinase A): 20.4 µM (active)
- EC50 (Streptococcus): 8.55 µM (active)
- IC50 [14]: 2.74 µM (active)
- IC50 [15]: 42.2 µM (inactive)
- IC50 [16]: 1.28 µM (active)

Structure (SMILES): CN(C)S(=O)(=O)c1cccc(NC(=O)c2cc(-c3cccs3)nn2-c2cccc(Cl)c2)c1
- IC50 [8]: > 69.5 µM (inactive)
- IC50 [9]: > 69.5 µM (inactive)

Structure (SMILES): CC(C)Nc1nc(NC(C)C)nc(N(C#N)CCOc2ccc(Cl)cc2Cl)n1
- EC50 [19]: 1.4 µM (active)
- EC50 [20]: > 60 µM (not active)
- IC50 [8]: > 69.5 µM (inactive)
- IC50 [9]: 13.5 µM (inactive)

Structure (SMILES): CC(=O)Nc1ccc(S(=O)(=O)N2CCN=C2SCc2ccc([N+](=O)[O-])cc2)cc1
- AC50 [12]: 0.252 µM (active)
- IC50 [21]: 2.82 µM (active)

Structure (SMILES): O=C(Nc1ccc(O)c(-c2nc3ccccc3s2)c1)c1cc(=O)c2ccccc2o1
- IC50 [22]: 5.27 µM (active)

Structure (SMILES): O=C(O)c1cn(C2CC2)c2cc(N3CCN(S(=O)(=O)c4ccc5c(c4)OCCO5)CC3)c(F)cc2c1=O
- IC50 [22]: 2.89 µM (active)

Structure (SMILES): O=C(COC(=O)c1ccc([N+](=O)[O-])s1)NC(c1ccccc1)c1ccccc1
- EC50 [1]: 32.8 µM (inactive)
